Here are results for ten molecules from PubChem BioAssay AID1259407 (Chemical Carcinogenesis Research Information System (CCRIS), 2018).

This series has as its system CCRIS mutagenicity, Ames/micronucleus/aberration tests. Kind of series: CCRIS mutagenicity studies.
Where [1] appears, read: Test System: AMES SALMONELLA TYPHIMURIUM, Strain/Indicator: TA98, Metabolic Activation: NONE, Method: PREINCUBATION
[2] abbreviates: Test System: AMES SALMONELLA TYPHIMURIUM, Strain/Indicator: TA100, Metabolic Activation: NONE, Method: PREINCUBATION

The source made the active and inactive calls. How the calls were made is not given here.

For the molecule `O/N=C/C=N/O`, the mutagenic call (Test System: AMES SALMONELLA TYPHIMURIUM, Strain/Indicator: TA102, Metabolic Activation: RAT, LIVER, S-9, PHENOBARBITAL AND 5,6-BENZOFLAVONE, Method: STANDARD PLATE) is “inactive; negative”; the mutagenic call (Test System: AMES SALMONELLA TYPHIMURIUM, Strain/Indicator: TA2638, Metabolic Activation: RAT, LIVER, S-9, PHENOBARBITAL AND 5,6-BENZOFLAVONE, Method: STANDARD PLATE) was “inactive; negative”; the mutagenic call (Test System: E. COLI, Strain/Indicator: WP2 (PKM101), Metabolic Activation: RAT, LIVER, S-9, PHENOBARBITAL AND 5,6-BENZOFLAVONE, Method: STANDARD PLATE) was “inactive; negative”; the mutagenic call (Test System: E. COLI, Strain/Indicator: WP2 UVRA (PKM101), Metabolic Activation: RAT, LIVER, S-9, PHENOBARBITAL AND 5,6-BENZOFLAVONE, Method: STANDARD PLATE) was “active; positive”.
Turning to `CNS(=O)(=O)c1ccc(NC(C)=O)cc1`, the mutagenic call is “inactive; negative” under setting [1]; “inactive; negative” (Test System: AMES SALMONELLA TYPHIMURIUM, Strain/Indicator: TA98, Metabolic Activation: RAT, LIVER, S-9, AROCLOR 1254, Method: PREINCUBATION); “inactive; negative” under setting [2]; “inactive; negative” (Test System: AMES SALMONELLA TYPHIMURIUM, Strain/Indicator: TA100, Metabolic Activation: RAT, LIVER, S-9, AROCLOR 1254, Method: PREINCUBATION).
Turning to `CC1(C)CO1`, the mutagenic call is, setting by setting: (Test System: AMES SALMONELLA TYPHIMURIUM, Strain/Indicator: TA100, Metabolic Activation: NONE, Method: FLASK ASSAY) “active; positive”; (Test System: AMES SALMONELLA TYPHIMURIUM, Strain/Indicator: TA100, Metabolic Activation: NONE, Method: FLASK VAPORIZATION) “active; positive”; (Test System: AMES SALMONELLA TYPHIMURIUM, Strain/Indicator: TA100, Metabolic Activation: RAT, LIVER, S-9, AROCLOR 1254, Method: FLASK ASSAY) “active; positive”; (Test System: AMES SALMONELLA TYPHIMURIUM, Strain/Indicator: TA100, Metabolic Activation: RAT, LIVER, S-9, AROCLOR 1254, Method: FLASK VAPORIZATION) “active; positive”; (Test System: AMES SALMONELLA TYPHIMURIUM, Strain/Indicator: TA102, Metabolic Activation: NONE, Method: FLASK ASSAY) “active; positive”; (Test System: AMES SALMONELLA TYPHIMURIUM, Strain/Indicator: TA102, Metabolic Activation: RAT, LIVER, S-9, AROCLOR 1254, Method: FLASK ASSAY) “active; positive”. Moreover, the mutagenic call (Test System: AMES SALMONELLA TYPHIMURIUM, Strain/Indicator: TA1535, Metabolic Activation: NONE, Method: FLASK ASSAY) is “active; positive”; the mutagenic call (Test System: AMES SALMONELLA TYPHIMURIUM, Strain/Indicator: TA1535, Metabolic Activation: NONE, Method: FLASK VAPORIZATION) was “active; positive”; the mutagenic call (Test System: AMES SALMONELLA TYPHIMURIUM, Strain/Indicator: TA1535, Metabolic Activation: RAT, LIVER, S-9, AROCLOR 1254, Method: FLASK ASSAY) was “active; positive”; the mutagenic call (Test System: AMES SALMONELLA TYPHIMURIUM, Strain/Indicator: TA1535, Metabolic Activation: RAT, LIVER, S-9, AROCLOR 1254, Method: FLASK VAPORIZATION) is “active; positive”.
With `O=Cc1ccc2ccc3cccc4ccc1c2c34`, the mutagenic call was “active; positive” (Test System: AMES SALMONELLA TYPHIMURIUM, Strain/Indicator: TA98, Metabolic Activation: RAT, LIVER, S-9, AROCLOR 1254, Method: STANDARD PLATE) and “active; positive” (Test System: AMES SALMONELLA TYPHIMURIUM, Strain/Indicator: TA100, Metabolic Activation: RAT, LIVER, S-9, AROCLOR 1254, Method: STANDARD PLATE).
As to `O=NSCCO`, the mutagenic call under setting [2] was “active; positive”.
`O=[N+]([O-])c1cccc2cc3ccccc3cc12`: the mutagenic call runs as follows: under setting [1], “active; positive”; (Test System: AMES SALMONELLA TYPHIMURIUM, Strain/Indicator: TA98, Metabolic Activation: RAT, LIVER, S-9, AROCLOR 1254 (10%), Method: PREINCUBATION) “active; positive”; under setting [2], “active; positive”; (Test System: AMES SALMONELLA TYPHIMURIUM, Strain/Indicator: TA100, Metabolic Activation: RAT, LIVER, S-9, AROCLOR 1254 (10%), Method: PREINCUBATION) “active; positive”.
`O=c1cc(-c2ccc(O)cc2)oc2cc(O)c([C@@H]3O[C@H](CO)[C@@H](O)[C@H](O)[C@H]3O)c(O)c12`: the mutagenic call reads like this: (Test System: Ames Salmonella typhimurium, Strain/Indicator: TA98, Metabolic Activation: None, Method: Standard plate) “inactive; negative”; (Test System: Ames Salmonella typhimurium, Strain/Indicator: TA98, Metabolic Activation: Rat, Liver, S-9, Aroclor 1254, Method: Standard plate) “inactive; negative”.
In the case of `CCCCCCCCCCCCOC[N+](C)(C)Cc1ccccc1`, the mutagenic call was “inactive; negative” (Test System: BACILLUS SUBTILIS, Strain/Indicator: H17/REC, Metabolic Activation: NONE, Method: STANDARD PLATE) and “inactive; negative” (Test System: BACILLUS SUBTILIS, Strain/Indicator: M45, Metabolic Activation: NONE, Method: STANDARD PLATE).
Turning to `CCN(CCCl)c1ccc(CCCNc2c3ccccc3nc3ccccc23)cc1`, the mutagenic call was “inactive; negative” (Test System: AMES SALMONELLA TYPHIMURIUM, Strain/Indicator: DG1588, Metabolic Activation: NONE, Method: STANDARD PLATE); “inactive; negative” (Test System: AMES SALMONELLA TYPHIMURIUM, Strain/Indicator: DG1592, Metabolic Activation: NONE, Method: STANDARD PLATE); “active; positive” (Test System: AMES SALMONELLA TYPHIMURIUM, Strain/Indicator: DG1593, Metabolic Activation: NONE, Method: STANDARD PLATE); “active; positive” (Test System: AMES SALMONELLA TYPHIMURIUM, Strain/Indicator: TA98, Metabolic Activation: NONE, Method: STANDARD PLATE); “active; positive” (Test System: AMES SALMONELLA TYPHIMURIUM, Strain/Indicator: TA100, Metabolic Activation: NONE, Method: STANDARD PLATE); “inactive; negative” (Test System: AMES SALMONELLA TYPHIMURIUM, Strain/Indicator: TA102, Metabolic Activation: NONE, Method: STANDARD PLATE). Further, the mutagenic call reads like this: (Test System: AMES SALMONELLA TYPHIMURIUM, Strain/Indicator: TA104, Metabolic Activation: NONE, Method: STANDARD PLATE) “active; positive”; (Test System: AMES SALMONELLA TYPHIMURIUM, Strain/Indicator: TA1535, Metabolic Activation: NONE, Method: STANDARD PLATE) “inactive; negative”; (Test System: AMES SALMONELLA TYPHIMURIUM, Strain/Indicator: TA1537 (PKM101), Metabolic Activation: NONE, Method: STANDARD PLATE) “active; positive”; (Test System: AMES SALMONELLA TYPHIMURIUM, Strain/Indicator: TA1537, Metabolic Activation: NONE, Method: STANDARD PLATE) “active; positive”; (Test System: AMES SALMONELLA TYPHIMURIUM, Strain/Indicator: TA1538, Metabolic Activation: NONE, Method: STANDARD PLATE) “inactive; negative”; (Test System: AMES SALMONELLA TYPHIMURIUM, Strain/Indicator: TA1975 (PKM101), Metabolic Activation: NONE, Method: STANDARD PLATE) “inactive; negative”. Also, the mutagenic call was “inactive; negative” (Test System: AMES SALMONELLA TYPHIMURIUM, Strain/Indicator: TA1975, Metabolic Activation: NONE, Method: STANDARD PLATE); “active; positive” (Test System: AMES SALMONELLA TYPHIMURIUM, Strain/Indicator: TA1977, Metabolic Activation: NONE, Method: STANDARD PLATE); “active; positive” (Test System: AMES SALMONELLA TYPHIMURIUM, Strain/Indicator: TA1978 (PKM101), Metabolic Activation: NONE, Method: STANDARD PLATE); “inactive; negative” (Test System: AMES SALMONELLA TYPHIMURIUM, Strain/Indicator: TA1978, Metabolic Activation: NONE, Method: STANDARD PLATE); “active; positive” (Test System: AMES SALMONELLA TYPHIMURIUM, Strain/Indicator: TA4001, Metabolic Activation: NONE, Method: STANDARD PLATE); “active; positive” (Test System: AMES SALMONELLA TYPHIMURIUM, Strain/Indicator: TA4006, Metabolic Activation: NONE, Method: STANDARD PLATE).
On to `CC(C)CN(N=O)C(N)=O`, for which the mutagenic call (Test System: E. COLI B, Strain/Indicator: H/R30R, Metabolic Activation: NONE) was “active; positive” and the mutagenic call (Test System: E. COLI B, Strain/Indicator: HS30R, Metabolic Activation: NONE) was “active; positive”.
